From patent publication US20150164871A1, “Pharmaceutical Compositions for Combination Therapy” (Acesion Pharma, priority 2012, published 2015)
Entries after “also recorded” stand apart in the source; their conditions may differ.

How the values were obtained:
[1] = tested on: Isolated, perfused female guinea pig hearts; test: Dose finding: cardioversion of acetylcholine/burst-pacing induced AF in Langendorff heart; conditions: for cardioversion obtained (animals converted out of animals): within 30 min, AF induced by 1 μmol/L ACh and burst pacing
Experimental: (§1) The isolated heart was prepared as follows. Guinea pigs weighing between 350 and 600 g were anesthetized with i.p. injection of 200 mg/kg pentobarbital. In addition, 1000 IU/kg heparin were injected i.p. Respiration was maintained by artificial ventilation(atm air) through a cannula in the trachea (volume, 12 ml/kg; rate, 60 strokes/min). Upon thoracotomy, a perfusion cannula was inserted and fixed in the aorta for retro-grade perfusion. Hearts were mounted in a vertical Langendorff set-up (Hugo Sachs-Harvard Apparatus GmbH, March-Hugstetten, Germany) and perfused with Krebs-Henseleit solution: 120.4 mM NaCl, 4.0 mM KCl, 2.5 mM CaCl2, 0.6 mM MgSO4, 15.3 mM NaHCO3, 0.6 mM NaH2PO4, and 11.5 mM glucose, pH 7.4, at constant oxygenation with O2/CO2 in a 95/5% mixture at 37° C. Four monophasic action potential (MAP) electrodes were placed on the left atrium, the right atrium, the left ventricle, and right ventricle, respectively. A pacing electrode was placed on the right atrium. The electro-cardiogram (ECG) was obtained with three ECG electrodes placed in close proximity to the heart. All data were acquired using the 16-channel PowerLab system (ADInstruments, Oxfordshire, UK). Pacing stimuli were twice the diastolic threshold and with a duration of 2 milliseconds (ms) unless otherwise stated.
Isolated, perfused female guinea pig hearts from Dunkin Hartley strain (HsdPoc:DH) continuously paced on the right atrium (300 bpm) were allowed to stabilize, and the atrial effective refractory period (aERP) was measured. AF was induced by 1 μmol/L acetylcholine (ACh) combined with burst pacing (50 Hz, 10V). When sustained (>3minutes) AF was obtained, the test compound from a stock concentration of 10 mMol/L in DMSO was added to the perfusate in a concentration of 100 nmol/L for 30 min. If no cardioversion was obtained within 30 minutes, the concentration of the compound in the perfusate was increased to 300 nmol/L. If no cardioversion was obtained within an additional time period of 30 minutes, the concentration of the compound in the perfusate was increased to 1.0 μmol/L. If no cardioversion was obtained within a further time period of 30 minutes, the concentration of the compound in the perfusate was increased to 3.0 μmol/L. If no cardioversion was obtained within an additional time period of 30 minutes, the concentration of the compound in the perfusate was increased to 10.0 μmol/L. If no cardioversion was obtained within an additional time period of 30 minutes, the concentration of the compound in the perfusate was increased to 30.0 μmol/L. Cardioversion was considered obtained if sinus rhythm was obtained within 30 minutes of one of the above mentioned drug applications, and if sustained AF could not be reinduced with burst pacing stimulation immediately after this.

[2] = tested on: Isolated, perfused female guinea pig hearts; test: Effect on atrial effective refractory period (aERP) in Langendorff heart; conditions: for prolongation of aERP from baseline values as compared to time matched controls (in words): administered alone, ICA 100 nmol/L, flecainide 1 μmol/L, ranolazine 3 μmol/L; for percentual prolongation of aERP after 30 minutes of perfusion as compared to the baseline: ICA 0.1 μM, flecainide 1 μM, ranolazine 3 μM, ±SEM
Experimental: as §1
(§2) The aERP was measured (10 basic stimuli [called S1] followed by premature S2 stimuli applied with 2-ms decrements) immediately before and at the end of the 30-minute period at pacing rates of 5 Hz and 10 Hz. After the 30 minutes of perfusion with either 100 nmol/L N-(pyridin-2-yl)-4-(pyridin-2-yl)thiazol-2-amine (ICA), 1 μmol/L flecainide, or 3 μmol/L ranolazine, or vehicle, 1 μmol/L ACh was added to the perfusate and induction of AF was attempted 40 times with burst-pacing (50 Hz) for 2 seconds or until sustained (duration>3 min) AF was obtained (test compound dissolved in DMSO in a stock concentration of 10 mMol/L). ICA in a concentration of 100 nmol/L was then tested in combination with either 1 μmol/L flecainide or 3 μmol/L ranolazine using the same protocol as described above in this section.

[3] = tested on: Isolated, perfused female guinea pig hearts; test: Effect on AF duration (ACh plus burst pacing) in Langendorff heart; conditions: for reduction of AF duration as compared to time matched controls (in words): administered alone, ICA 100 nmol/L, flecainide 1 μmol/L, ranolazine 3 μmol/L; for Log AF duration: log(10)-transformed, means±SEM, 1 μmol/L ACh, burst pacing 50 Hz, ICA 0.1 μM, flecainide 1 μM, ranolazine 3 μM
Experimental: as §1, §2

[4] = concentration 3.0 μM in perfusate

SMILES	cardioversion obtained (animals converted out of animals) [1, 4]	cardioversion obtained (animals converted out of animals) ([1]; concentration 10.0 μM in perfusate)	prolongation of aERP from baseline values as compared to time matched controls (in words) [2]	percentual prolongation of aERP after 30 minutes of perfusion as compared to the baseline ([2]; pacing frequency 5 Hz) [%]	percentual prolongation of aERP after 30 minutes of perfusion as compared to the baseline ([2]; pacing frequency 10 Hz) [%]	reduction of AF duration as compared to time matched controls (in words) [3]	Log AF duration [3]	cardioversion obtained (animals converted out of animals) ([1]; concentration 1.0 μM in perfusate)	No cardioversion (animals out of animals) ([1]; stepwise 0.1 to 30.0 μM, 30 min each)	cardioversion obtained (animals converted out of animals) ([1]; concentration 0.3 μM in perfusate)
O=C(NCC1CCCCN1)c1cc(OCC(F)(F)F)ccc1OCC(F)(F)F (stereo not drawn) [Flecainide, N-(piperidin-2-ylmethyl)-2,5-bis(2,2,2-trifluoroethoxy)benzamide]	2/4	2/4	no significant prolongation of aERP; also recorded: sub-effective	123.0 ± 2.6	124.6 ± 8.0	no significant reduction of AF duration; also recorded: sub-effective	1.27 ± 0.14			
COc1ccccc1OCC(O)CN1CCN(CC(=O)Nc2c(C)cccc2C)CC1 (stereo not drawn) [Ranolazine, N-(2,6-dimethylphenyl)-2-[4-[2-hydroxy-3-(2-methoxyphenoxy)-propyl]piperazin-1-yl]acetamide]	2/5		no significant prolongation of aERP; also recorded: sub-effective	114.81 ± 12.7	114.4 ± 9.9	no significant reduction of AF duration; also recorded: sub-effective	1.11 ± 0.23	1/5	2/5	
c1ccc(Nc2nc(-c3ccccn3)cs2)nc1 [ICA, N-(pyridin-2-yl)-4-(pyridin-2-yl)thiazol-2-amine]			no significant prolongation of aERP; also recorded: does not cause any significant effects	112.5 ± 3.8	119.3 ± 10.6	no significant reduction of AF duration; also recorded: does not cause any significant effects	1.29 ± 0.15			4/4
